This is an account of results in ChEMBL document CHEMBL5120907, “Triculamin: An Unusual Lasso Peptide with Potent Antimycobacterial Activity” (J Nat Prod, 2022).

For orientation: MIC means the lowest concentration found to suppress growth. Broadly, the MBC is the smallest concentration meeting the test's criterion for killing.

Values after ≈ are worked out from the molar mass of the structure shown. Where a SMILES comes first, the peptide text is derived from it. Bridges are numbered along the chain shown (N, C = ends).

Data set [1] concerns Mycolicibacterium phlei. The experiment in a line: Antibacterial activity against Mycobacterium phlei DSM 43239 assessed as reduction in bacterial growth measured after 3 days by broth microdilution method. It counts as functional. The conditions noted are these: DSM 43239, 72 h, time 3 day. A general note: Dilution methods test growth across graded concentrations, often in twofold steps.

For data set [2], the system named is Enterococcus faecium. The experiment in a line: Bactericidal activity against Enterococcus faecium DSM 20477 assessed as reduction in colony count and measured after 3 days by agar diffusion assay. Format: functional. Particulars: DSM 20477, 72 h, time 3 day.
Data set [3] relates to Klebsiella oxytoca. The experiment in a line: Bactericidal activity against Klebsiella oxytoca DSM 5175 assessed as reduction in colony count and measured after 3 days by agar diffusion assay. Format: functional. Particulars: DSM 5175, 72 h, time 3 day.
Data set [4] deals with Acinetobacter baumannii. The data set can be described thus: Antibacterial activity against Acinetobacter baumannii […] assessed as reduction in bacterial growth measured after 3 days by broth microdilution method. It counts as functional. Particulars: 72 h, time 3 day.
Data set [5] deals with Enterobacter cloacae. The data set can be described thus: Antibacterial activity against Enterobacter cloacae DSM 30054 assessed as reduction in bacterial growth measured after 3 days by broth microdilution method. Format: functional. Particulars: DSM 30054, 72 h, time 3 day.
Data set [6] concerns Pseudomonas aeruginosa. The data set can be described thus: Antibacterial activity against Pseudomonas aeruginosa DSM 19880 assessed as reduction in bacterial growth measured after 3 days by broth microdilution method. Format: functional. The conditions noted are these: DSM 19880, 72 h, time 3 day.
Data set [7] relates to Enterococcus faecium. The data set can be described thus: Antibacterial activity against Enterococcus faecium DSM 20477 assessed as reduction in bacterial growth measured after 3 days by broth microdilution method. It counts as functional. Particulars: DSM 20477, 72 h, time 3 day.
Data set [8] deals with Mycolicibacterium smegmatis. The data set can be described thus: Antibacterial activity against Mycobacterium smegmatis DSM 43080 assessed as reduction in bacterial growth measured after 3 days by broth microdilution method. Format: functional. Particulars: DSM 43080, 72 h, time 3 day.
Data set [9] concerns Klebsiella oxytoca. The data set can be described thus: Antibacterial activity against Klebsiella oxytoca DSM 5175 assessed as reduction in bacterial growth measured after 3 days by broth microdilution method. The conditions noted are these: DSM 5175, 72 h, time 3 day. It counts as functional.
Data set [10] has as its system Acinetobacter baumannii. The experiment in a line: Bactericidal activity against Acinetobacter baumannii […] assessed as reduction in colony count and measured after 3 days by agar diffusion assay. The conditions noted are these: 72 h, time 3 day. Format: functional. (A growth-free zone around the sample is the usual read-out of agar diffusion tests.)
In data set [11] the test system is Pseudomonas aeruginosa. The data set can be described thus: Bactericidal activity against Pseudomonas aeruginosa DSM 19880 assessed as reduction in colony count and measured after 3 days by agar diffusion assay. Format: functional. Particulars: DSM 19880, 72 h, time 3 day.
In data set [12] the test system is Mycolicibacterium phlei. The data set can be described thus: Bactericidal activity against Mycobacterium phlei DSM 43239 assessed as reduction in colony count and measured after 3 days by agar diffusion assay. It counts as functional. Particulars: DSM 43239, 72 h, time 3 day.
Data set [13] can be described thus: Stability of the compound assessed as carboxypeptidase Y mediated compound digestion pretreated at 95 degreeC for 4 hrs followed by protease addition incubated for 4 hrs by HPLC analysis. It counts as ADME.
Data set [14] has as its system Bacillus cereus. The experiment in a line: Antibacterial activity against Bacillus cereus DSM 31 assessed as reduction in bacterial growth measured after 3 days by broth microdilution method. Format: functional. Particulars: DSM 31, 72 h, time 3 day.
The nature of data set [15]: Thermal stability of compound in water assessed as antibacterial activity against Mycobacterium smegmatis DSM 43080 by measuring zone of inhibition incubated up to 8 hrs at 95 degreeC by agar diffusion assay. It counts as physicochemical. Particulars: buffer.
The test system of data set [16] is Staphylococcus aureus. The experiment in a line: Bactericidal activity against Staphylococcus aureus DSM 20231 assessed as reduction in colony count and measured after 3 days by agar diffusion assay. Format: functional. The conditions noted are these: DSM 20231, 72 h, time 3 day.
Data set [17] relates to Mycolicibacterium smegmatis. The data set can be described thus: Antimycobacterial activity against Mycobacterium smegmatis DSM 43080 assessed as reduction in bacterial growth at late-exponential phase at 10 times of MIC measured up to 48 hrs by time killing assay. Particulars: TDE = time-dependent effect. Format: functional, organism-based.
Data set [18] in a line: Thermal stability of compound in water incubated at 95 degreeC for 4 hrs by HPLC analysis. It counts as physicochemical. The conditions noted are these: buffer.
In data set [19] the test system is Bacillus cereus. The experiment in a line: Bactericidal activity against Bacillus cereus DSM 31 assessed as reduction in colony count and measured after 3 days by agar diffusion assay. Format: functional. Particulars: DSM 31, 72 h, time 3 day.
The test system of data set [20] is Mycolicibacterium smegmatis. The experiment in a line: Bactericidal activity against Mycobacterium smegmatis DSM 43080 assessed as reduction in colony count and measured after 3 days by agar diffusion assay. Format: functional. The conditions noted are these: DSM 43080, 72 h, time 3 day.
The subject of data set [21] is Enterobacter cloacae. The data set can be described thus: Bactericidal activity against Enterobacter cloacae DSM 30054 assessed as reduction in colony count and measured after 3 days by agar diffusion assay. Format: functional. The conditions noted are these: DSM 30054, 72 h, time 3 day.
Data set [22] can be described thus: Stability of the compound assessed as carboxypeptidase Y mediated compound digestion by measuring Mycobacterium smegmatis DSM 43080 zone of inhibition incubated for 4 hrs by agar diffusion assay. It counts as ADME.
The subject of data set [23] is Mycolicibacterium smegmatis. The experiment in a line: Antimycobacterial activity against Mycobacterium smegmatis DSM 43080 assessed as reduction in bacterial growth at mid-exponential phase at 10 times of MIC and measured up to 24 hrs by time killing assay. Format: functional, organism-based. The conditions noted are these: TDE = time-dependent effect.
The test system of data set [24] is Staphylococcus aureus. The data set can be described thus: Antibacterial activity against Staphylococcus aureus DSM 20231 assessed as reduction in bacterial growth measured after 3 days by broth microdilution method. Format: functional. Particulars: DSM 20231, 72 h, time 3 day.

In the case of `CC[C@H](C)[C@H](NC(=O)CNC(=O)[C@@H]1CC(=O)N[C@@H](CO)C(=O)N[C@@H](CCCCN)C(=O)N[C@@H](CCCCN)C(=O)N[C@@H](CO)C(=O)N[C@@H](CCCCN)C(=O)N2CCC[C@H]2C(=O)NCC(=O)N1)C(=O)N[C@@H](CCCNC(=N)N)C(=O)NCC(=O)N[C@@H](CCCCN)C(=O)NCC(=O)N[C@H](C(=O)N[C@@H](CCCNC(=N)N)C(=O)NCC(=O)O)C(C)C` (SKKSKPGDGIRGKGVRG-OH; lactam N-8), the MIC in the data set on Mycolicibacterium phlei [1] is 0.03 µg/mL (≈ 0.0176 µM); with Acinetobacter baumannii [4], greater than 32 µg/mL; in the data set on Enterobacter cloacae [5], greater than 32 µg/mL; with Pseudomonas aeruginosa [6], greater than 32 µg/mL; in the data set on Enterococcus faecium [7], greater than 32 µg/mL; in data set [8], 0.125 µg/mL (≈ 0.0731 µM). The MIC in the data set with Klebsiella oxytoca [9], in the data set on Bacillus cereus [14] and in the data set on Staphylococcus aureus [24] was greater than 32 µg/mL throughout. Besides, the minimal bactericidal concentration (MBC) is greater than 32 µg/mL in the data set with Enterococcus faecium [2]; greater than 32 µg/mL in the data set on Klebsiella oxytoca [3]; greater than 32 µg/mL in the data set with Acinetobacter baumannii [10]; greater than 32 µg/mL with Pseudomonas aeruginosa [11]; greater than 0.125 µg/mL with Mycolicibacterium phlei [12]; greater than 32 µg/mL in the data set on Staphylococcus aureus [16]. Moreover, the MBC in the data set on Bacillus cereus [19] is greater than 32 µg/mL; in data set [20] it was 0.5 µg/mL (≈ 0.293 µM); in the data set on Enterobacter cloacae [21] it was greater than 32 µg/mL. The Stability result in data set [13], in [15], in data set [18] and in [22] was “Stable” in each case. Besides, the Activity result in [17] and in data set [23] was “Tde” throughout.
Take `NC[C@H]1O[C@H](O[C@H]2[C@H](O)[C@@H](O[C@H]3O[C@H](CO)[C@@H](O)[C@H](N)[C@H]3O)[C@H](N)C[C@@H]2N)[C@H](O)[C@@H](O)[C@@H]1O` [KANAMYCIN]: the minimal inhibitory concentration (MIC) was 1 µg/mL (≈ 2.06 µM) in the data set with Mycolicibacterium phlei [1]; 2 µg/mL (≈ 4.13 µM) with Acinetobacter baumannii [4]; 2 µg/mL (≈ 4.13 µM) with Enterobacter cloacae [5]; greater than 32 µg/mL in the data set on Pseudomonas aeruginosa [6]; greater than 32 µg/mL in the data set on Enterococcus faecium [7]; 0.5 µg/mL (≈ 1.03 µM) in data set [8]. For the same molecule, the MIC with Klebsiella oxytoca [9] worked out at 2 µg/mL (≈ 4.13 µM); in the data set on Bacillus cereus [14] it was 8 µg/mL (≈ 16.5 µM); in the data set on Staphylococcus aureus [24], 2 µg/mL (≈ 4.13 µM). The MBC is greater than 32 µg/mL with Enterococcus faecium [2], greater than 32 µg/mL with Pseudomonas aeruginosa [11], 1 µg/mL (≈ 2.06 µM) with Mycolicibacterium phlei [12] and 0.5 µg/mL (≈ 1.03 µM) in data set [20].
`CO[C@H]1/C=C/O[C@@]2(C)Oc3c(C)c(O)c4c(O)c(c(/C=N/N5CCN(C)CC5)c(O)c4c3C2=O)NC(=O)/C(C)=C\C=C\[C@H](C)[C@H](O)[C@@H](C)[C@@H](O)[C@@H](C)[C@H](OC(C)=O)[C@@H]1C` [RIFAMPIN]: the minimum inhibitory concentration (MIC) with Mycolicibacterium phlei [1] was 0.03 µg/mL (≈ 0.0365 µM); with Acinetobacter baumannii [4], 1 µg/mL (≈ 1.22 µM); in the data set on Enterobacter cloacae [5], 16 µg/mL (≈ 19.4 µM); in the data set with Pseudomonas aeruginosa [6] it was greater than 32 µg/mL; in the data set on Enterococcus faecium [7] it was 8 µg/mL (≈ 9.72 µM); in [8], 8 µg/mL (≈ 9.72 µM). In addition, the MIC amounted to 4 µg/mL (≈ 4.86 µM) in the data set with Klebsiella oxytoca [9], 0.25 µg/mL (≈ 0.304 µM) in the data set on Bacillus cereus [14] and 0.004 µg/mL (≈ 0.00486 µM) in the data set with Staphylococcus aureus [24]. The minimal bactericidal concentration (MBC) in the data set on Pseudomonas aeruginosa [11] is greater than 32 µg/mL; in the data set on Mycolicibacterium phlei [12], 0.06 µg/mL (≈ 0.0729 µM); in data set [20], 8 µg/mL (≈ 9.72 µM).
